pKi: −log10 of the molar value. Values joined by “and” are separate entries in the source; they are usually repeats but may differ in a detail not shown here. Identical values can stand only once. Counter-ions that a name gives are not always drawn. Like-named read-outs stand apart in the source and are kept apart here.
Assays:
[1] = test system: enzyme which desactivates acetylcholine; assay: Stability to the enzyme which desactivates acetylcholine; assay type: in vitro ADME; settings: in words
[2] = test system: autonomic ganglionic and central muscarinic receptors; assay: Cholinergic stimulant activity and specificity; settings: in words
mice [3] = assay: Salivation (sialigenic activity) in mice, Table 2; assay type: in vivo; settings: Mus musculus, ip, read-out: Salivation ED50 (ip)
Description: (§1) Acute Toxicity, tremorigenic and sialigenic
(§2) *with 95% confidence limits, Litchfield & Wilcoxon, (1949).
**Chiang & Leaders, 1971

blood pressure = assay: Fall in blood pressure in vivo, Table 1; design: species or system cat; settings: iv; for ED50: Felis catus, read-out: Fall blood pressure ED50 (iv); for Fall blood pressure EPMR: equipotent molar ratio relative to ACh
Description: (§3) cat mice cat Guinea pig ileum
(§4) *with 95% confidence limits (Litchfield et al, 1949)
(§5) **EPMR: equipotent molar ratio relative to ACh. nmole: nannomoles

Guinea pig ileum = Guinea pig ileum induced contraction in vitro, Table 1; assay type: cell-based; settings: equipotent molar ratio relative to ACh
Description: as §3
(iv) induced contraction
as §5

mice [4] = assay: Induced tremors in mice, Table 1; assay type: in vivo; settings: Mus musculus, ip, read-out: Induced tremors ED50 (ip)
Description: as §3, §4

mice [5] = assay: Tremors (tremorigenic activity) in mice, Table 2; assay type: in vivo; settings: Mus musculus, ip, read-out: Tremors ED50 (ip)
Description: as §1, §2

mice [6] = settings: Chiang & Leaders, 1971; cited from earlier work
[7] = Acute toxicity in mice, Table 2; settings: mouse, in vivo
Description: as §2

[8] = Biological activity of the cis-isomer; settings: in words, cis/trans comparison
[9] = test system: Oxotromorine induced tremors; assay: Antagonism to oxotremorine induced tremors; assay type: in vivo, Mice; settings: Mus musculus, sc
Protocol: (§6) *With 95% confidence limits (Litchfield and Wilcoxon, 1949).
(§7) ^+ R1 =R2 =.PHI.,HCl is injected 20 min. prior to […]

SCG = SCG (cat), antagonism to McN-A-343 induced contraction of NM; assay type: in vivo
Description: |induced contraction of NM

[10] = test system: Oxotromorine induced salivation; assay: Antagonism to oxotremorine induced salivation; assay type: in vivo, Mice; settings: Mus musculus, sc
Protocol: as §6
**Oxotromorine, 170 μg/kg, ip (1.15 ED50) induced salivation.
as §7

Anticholinergic activity = settings: in words
[11] = test system: Physostigmine induced lethality; assay: Antagonism to physostigmine induced lethality; assay type: in vivo, Mice; settings: Mus musculus, sc
Description: as §6

mydriatic activity = assay: Relative mydriatic activity, Table 3; assay type: in vivo; settings: atropine sulphate = 1
[12] = test system: Oxotromorine induced tremors and salivation; assay: CNS/PNS activity (ED50 blockade of tremors / ED50 blockade of salivation); assay type: in vivo, Mice; settings: ED50 for blockade of tremors divided by ED50 for blockade of salivation; 95% confidence limits
Description: as §6

LD50 in mice, Table 3 = settings: mouse, in vivo, sc
Guinea-pig ileum = biological target: T1, Guinea-pig ileum (Cavia porcellus, UniProt H0W1Z3); assay: Antagonism in guinea-pig ileum (log Ki), Table 3; assay type: cell-based; settings: printed as log Ki (negative)
T1 construct: Guinea-pig ileum, log Ki; from tissue; host or cells: guinea-pig ileum
T1 sequence (H0W1Z3 1-590): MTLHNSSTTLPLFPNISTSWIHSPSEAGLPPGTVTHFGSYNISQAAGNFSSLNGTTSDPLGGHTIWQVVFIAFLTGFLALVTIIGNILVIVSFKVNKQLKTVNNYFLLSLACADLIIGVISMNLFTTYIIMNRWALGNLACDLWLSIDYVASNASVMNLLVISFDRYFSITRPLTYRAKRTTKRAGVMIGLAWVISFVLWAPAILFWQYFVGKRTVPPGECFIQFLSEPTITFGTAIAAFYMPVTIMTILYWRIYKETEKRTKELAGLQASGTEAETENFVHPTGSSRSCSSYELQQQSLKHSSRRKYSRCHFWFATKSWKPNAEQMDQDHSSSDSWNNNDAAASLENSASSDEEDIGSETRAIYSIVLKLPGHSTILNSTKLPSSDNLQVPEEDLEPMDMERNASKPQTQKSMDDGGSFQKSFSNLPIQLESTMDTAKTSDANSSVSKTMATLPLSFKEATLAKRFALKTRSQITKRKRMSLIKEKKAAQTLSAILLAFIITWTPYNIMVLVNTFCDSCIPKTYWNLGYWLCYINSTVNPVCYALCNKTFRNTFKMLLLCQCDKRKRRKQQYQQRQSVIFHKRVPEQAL

SMILES: CC1OCC2(CN3CCC2CC3)O1 (stereo not drawn) [Example 1, 2-Methyl spiro (1,3-dioxolane-4,3')Quinuclidine]
- destruction by the enzyme which desactivates acetylcholine [1]: not destroyed by the enzyme which desactivates acetylcholine
- cholinergic stimulant activity [2]: specific and powerful cholinergic stimulant
- specificity towards autonomic ganglionic and central muscarinic receptors [2]: high degree of specificity

SMILES: CC(=O)OC1CN2CCC1CC2 (stereo not drawn) [3-Acetoxyquinuclidine]
- ED50 (mice [3]): 1.8 mg/kg and 8.8 µmol/kg
- ED50 (blood pressure): 0.0002 mg/kg and 0.001 µmol/kg
- Fall blood pressure EPMR (blood pressure; cat): 6.25
- Guinea pig ileum induced contraction EPMR (Guinea pig ileum): 14
- ED50 (mice [4]): 7.5 mg/kg and 36.5 µmol/kg
- ED50 (mice [5]): 7.5 mg/kg and 36.5 µmol/kg
- Salivation ED50 (ip) (mice [6]): 2.9 mg/kg
- LD50 ([7]; sc): 112 mg/kg

SMILES: CC1OCC2(CN3CCC2CC3)O1 (single isomer, unassigned; isomer 2) [cis-isomer, 2-methyl spiro (1,3-dioxolane-4,3') quinuclidine]
- biological activity of the cis-isomer [8]: greater biological activity

SMILES: O=C1CCCN1CC#CCN1CCCC1 [Oxotremorine]
- ED50 (mice [3]; mice): 0.12 mg/kg and 0.63 µmol/kg
- ED50 (mice [5]; mice): 0.14 mg/kg and 0.73 µmol/kg
- LD50 ([7]; ip): 5 mg/kg

SMILES: CN1[C@@H]2CC[C@H]1CC(OC(=O)C(CO)c1ccccc1)C2 (stereo partly drawn) [Atropine Sulphate, reference compound]
- ED50 [9]: 1 µmol/kg
- antagonism to McN-A-343 induced contraction of NM ED50 (ia) (SCG): 1.4 µmol
- ED50 [10]: 0.039 µmol/kg

SMILES: CC(=O)OCC[N+](C)(C)C [Acetylcholine]
- ED50 (blood pressure; cat): 0.00016 µmol/kg

SMILES: CC1OCC2(CN3CCC2CC3)O1 (stereo not drawn) [I,R1 =H,R2 =-CH3.HCl, 2-methyl spiro (1,3-dioxolane-4,3') quinuclidine]
- ED50 (mice [3]; mice): 3 mg/kg and 13.7 µmol/kg
- ED50 (blood pressure; cat): 0.0066 mg/kg and 0.0301 µmol/kg
- Fall blood pressure EPMR (blood pressure; cat): 188
- Guinea pig ileum induced contraction EPMR (Guinea pig ileum): 240
- ED50 (mice [4]; mice): 4.5 mg/kg and 20.5 µmol/kg
- ED50 (mice [5]; mice): 4.5 mg/kg and 20.5 µmol/kg
- LD50 ([7]; sc): 220 mg/kg

SMILES: c1ccc(C2(c3ccccc3)OCC3(CN4CCC3CC4)O2)cc1 (stereo not drawn) [Example 3, 2,2-diphenyl spiro (1,3-dioxolane-4,3')quinuclidine]
- anticholinergic activity (Anticholinergic activity): powerful anticholinergic agent

SMILES: CC(=O)OC(C)C[N+](C)(C)C (stereo not drawn) [Acetyl-β-methyl choline]
- Guinea pig ileum induced contraction EPMR (Guinea pig ileum): 3.6

SMILES: c1ccc(C2(c3ccccc3)OCC3(CN4CCC3CC4)O2)cc1 (stereo not drawn) [I,R1 =R2 =phenyl,HCl, 2,2-diphenyl spiro (1,3-dioxolane-4,3')quinuclidine]
- ED50 [11]: 0.2 µmol/kg
- ED50 [9]: 0.31 µmol/kg
- antagonism to McN-A-343 induced contraction of NM ED50 (ia) (SCG): 0.5 µmol
- Relative mydriatic activity (mydriatic activity): 1.5
- CNS/PNS activity [12]: 1.1(0.77-1.56)
- LD50 (LD50 in mice, Table 3): 40 mg/kg
- pKi (Guinea-pig ileum): 9.60
- ED50 [10]: 0.28 µmol/kg

— US4104397A, “Spiro (1,3-dioxolane-4,3') quinuclidine compounds” (The Purdue Frederick Company, priority 1975, dated 1978)
